pIC50: −log10 of the molar value.
How the values were obtained:
KAT5 = molecular target: T1, KAT5 (Homo sapiens, UniProt Q92993); assay: KAT5 enzyme inhibition assay (SAMDI mass spectrometry); format: biochemical; settings: His-TEV-FL KAT5-Flag enzyme construct
T1 construct: His-TEV tag (N, cleaved yes); made in house

KAT6A = molecular target: T2, KAT6A (Homo sapiens, UniProt Q92794); assay: KAT6A enzyme inhibition assay (SAMDI mass spectrometry); format: biochemical; settings: His-TEV-KAT6A 501-784 enzyme construct
T2 construct: His-TEV tag (N, cleaved yes); made in house
T2 sequence (Q92794 with tags, fused parts or gaps): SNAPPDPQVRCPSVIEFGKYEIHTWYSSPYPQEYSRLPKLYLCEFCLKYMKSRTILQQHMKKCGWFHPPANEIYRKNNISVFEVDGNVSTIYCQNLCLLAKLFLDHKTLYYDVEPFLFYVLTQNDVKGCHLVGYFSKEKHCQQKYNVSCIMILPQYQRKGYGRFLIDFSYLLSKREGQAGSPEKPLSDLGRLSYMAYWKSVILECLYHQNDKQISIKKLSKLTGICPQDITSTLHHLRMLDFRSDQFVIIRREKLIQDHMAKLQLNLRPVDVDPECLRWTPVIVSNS

T1 sequence (Q92993 with tags, fused parts or gaps): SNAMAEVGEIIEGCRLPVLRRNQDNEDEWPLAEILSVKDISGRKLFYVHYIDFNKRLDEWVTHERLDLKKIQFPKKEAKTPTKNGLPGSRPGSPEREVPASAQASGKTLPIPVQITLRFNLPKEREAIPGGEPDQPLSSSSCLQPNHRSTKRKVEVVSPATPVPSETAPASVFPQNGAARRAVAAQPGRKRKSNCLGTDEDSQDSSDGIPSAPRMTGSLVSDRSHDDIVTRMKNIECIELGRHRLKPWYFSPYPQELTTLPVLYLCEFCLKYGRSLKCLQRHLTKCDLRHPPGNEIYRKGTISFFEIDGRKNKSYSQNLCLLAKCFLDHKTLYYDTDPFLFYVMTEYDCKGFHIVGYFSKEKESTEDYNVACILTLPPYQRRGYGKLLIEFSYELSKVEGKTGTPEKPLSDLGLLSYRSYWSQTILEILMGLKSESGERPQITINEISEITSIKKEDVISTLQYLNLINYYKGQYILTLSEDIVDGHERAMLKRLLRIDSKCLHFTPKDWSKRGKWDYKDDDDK

| SMILES | pIC50 (KAT5) | pIC50 (KAT6A) |
| --- | --- | --- |
| O=C(NNS(=O)(=O)C1CCOCC1)c1cc(CN2CCCCC2)cc(Cl)c1F [Compound I-454] | 4.00 to 4.30 | 4.30 to 5.00 |
| Cn1c(NNS(=O)(=O)c2ccccc2)nc2ccccc21 [Compound I-13] | < 4.00 | < 4.00 |
| Cc1cc(-c2ccc(C(C)C)cc2)cc(C(=O)NNS(=O)(=O)c2ccccc2)c1F [Compound I-384] | < 4.00 | ≥ 5.00 |
| O=C(NNS(=O)(=O)c1ccccc1)c1ccccn1 [Compound I-194] | < 4.00 | < 4.00 |
| Cn1cc(-c2ccc(F)c(Cl)c2)nc1C(=O)NNS(=O)(=O)CC1CCOCC1 [Compound I-478] | < 4.00 | < 4.00 |
| O=C(NNC(=O)c1ccccc1F)c1ccccc1 [Compound I-138] | < 4.00 | < 4.00 |
| O=C(NNS(=O)(=O)C1CCCCC1)c1cc(-c2cc(Cl)cc(Cl)c2)cc(Cl)c1F [Compound I-487] | 4.30 to 5.00 | 4.30 to 5.00 |
| Cc1cc(-c2ccccc2)c(F)c(C(=O)NNS(=O)(=O)c2ccccc2)c1F [Compound I-223] | ≥ 5.00 | ≥ 5.00 |
| Cc1c(-c2ccccc2)ccc(Cl)c1C(=O)NNS(=O)(=O)C1CCCCC1 [Compound I-308] | 4.00 to 4.30 | < 4.00 |
| O=C(NNS(=O)(=O)c1cccc(F)c1)c1cc(-c2ccccc2)ccc1F [Compound I-154] | 4.30 to 5.00 | ≥ 5.00 |
| COc1cc(Cl)c(F)c(C(=O)NNS(=O)(=O)C2CCOCC2)c1 [Compound I-430] | 4.00 to 4.30 | < 4.00 |
| O=C(NNS(=O)(=O)c1ccccc1)c1ccccc1 [Compound I-159] | < 4.00 | 4.00 to 4.30 |
| O=C(NNS(=O)(=O)c1ccccc1)c1cccc(Cl)c1 [Compound I-190] | 4.00 to 4.30 | 4.30 to 5.00 |
| O=C(NNS(=O)(=O)c1ccccc1)c1cccc(-c2ccccc2)c1F [Compound I-234] | < 4.00 | ≥ 5.00 |
| Cc1c(-c2ccccc2)ccc(F)c1C(=O)NNS(=O)(=O)c1ccccc1 [Compound I-251] | 4.00 to 4.30 | ≥ 5.00 |
| O=C(NNS(=O)(=O)c1cc(-c2ccccc2)cc(Cl)c1F)C1CCCCC1 [Compound I-524] | 4.00 to 4.30 | 4.30 to 5.00 |
| Cc1cc(C(=O)NNS(=O)(=O)c2ccccc2)cc(-c2ccccc2)c1F [Compound I-126] | 4.00 to 4.30 | ≥ 5.00 |
| CCS(=O)(=O)N1CCCC(CS(=O)(=O)NNC(=O)c2cc(-c3cccc(C)c3)cc(Cl)c2F)C1 (centres unmarked) [Compound I-511] | ≥ 5.00 | < 4.00 |
| O=C(NNS(=O)(=O)c1cccc(Cl)c1)c1c(F)ccc(-c2ncc[nH]2)c1F [Compound I-170] | < 4.00 | 4.00 to 4.30 |
| Cn1ccnc1-c1ccc(F)c(C(=O)NNS(=O)(=O)c2ccccc2)c1F [Compound I-172] | < 4.00 | 4.30 to 5.00 |

| SMILES | pIC50 (KAT5) | pIC50 (KAT6A) |
| --- | --- | --- |
| Cc1cc(F)c(-c2ccccc2)cc1C(=O)NNS(=O)(=O)c1ccccc1 [Compound I-123] | < 4.00 | < 4.00 |
| Cc1cc(-c2cccc(F)c2)cc(C(=O)NNS(=O)(=O)CC2CCN(C(=O)CCN(C)C)CC2)c1F [Compound I-432] | 4.30 to 5.00 | 4.30 to 5.00 |
| COCCOc1cccc(-c2cc(C)c(F)c(C(=O)NNS(=O)(=O)c3ccccc3)c2)c1 [Compound I-279] | 4.30 to 5.00 | ≥ 5.00 |
| COCCNC(=O)c1cccc(-c2cc(C)c(F)c(C(=O)NNS(=O)(=O)c3ccccc3)c2)c1 [Compound I-494] | 4.30 to 5.00 | ≥ 5.00 |
| O=C(NNS(=O)(=O)c1ccccc1)c1cnn(Cc2ccccc2)c1 [Compound I-230] | < 4.00 | < 4.00 |
| O=C(NNS(=O)(=O)c1cccc(Cl)c1)c1c(F)ccc(-c2cn[nH]c2)c1F [Compound I-305] | < 4.00 | 4.30 to 5.00 |
| Cc1cc(Br)cc(C(=O)NNS(=O)(=O)C2CCCCC2)c1F [Compound I-293] | ≥ 5.00 | 4.00 to 4.30 |
| O=C(NNS(=O)(=O)c1ccc2ccccc2c1)c1cccc(-c2ccccc2)c1 [Compound I-246] | 4.00 to 4.30 | ≥ 5.00 |
| CNC(=O)CCNC(=O)c1cc(Cl)c(F)c(C(=O)NNS(=O)(=O)C2CCCCC2)c1 [Compound I-474] | < 4.00 | < 4.00 |
| O=C(NNS(=O)(=O)CC1CCCCC1)c1cc(Cl)cc(Cl)c1F [Compound I-411] | ≥ 5.00 | 4.30 to 5.00 |
| O=S(=O)(NNc1n[nH]c2c(-c3ccccc3)cccc12)c1ccccc1 [Compound I-50] | 4.00 to 4.30 | < 4.00 |
| COc1ccccc1S(=O)(=O)NNC(=O)c1ccccc1F [Compound I-174] | < 4.00 | < 4.00 |
| CC(C)C(Cc1ccccc1)C(=O)NNS(=O)(=O)c1ccccc1 (centres unmarked) [Compound I-260] | < 4.00 | < 4.00 |
| O=C(NNS(=O)(=O)c1cccc(Cl)c1)c1c(F)ccc(Cl)c1F [Compound I-198] | 4.00 to 4.30 | ≥ 5.00 |
| Cc1cc(C2CCCN(C)C2)cc(C(=O)NNS(=O)(=O)C2CCCCC2)c1F (centres unmarked) [Compound I-287] | < 4.00 | < 4.00 |
| COc1ccc(Cn2cnc3c(C(=O)NNS(=O)(=O)c4ccccc4)cc(-c4ccccc4)cc32)cc1 [Compound I-248] | 4.00 to 4.30 | 4.30 to 5.00 |
| COCc1cc(Cl)c(F)c(C(=O)NNS(=O)(=O)C2CCCCC2)c1 [Compound I-451] | ≥ 5.00 | 4.30 to 5.00 |
| O=S(=O)(Nc1ncc(-c2ccccc2F)[nH]1)c1ccccc1 [Compound I-65] | < 4.00 | < 4.00 |
| O=S(=O)(NNc1n[nH]c2cccc(F)c12)c1ccccc1 [Compound I-45] | < 4.00 | < 4.00 |

The remaining lines, values ahead:

| pIC50 (KAT5) | pIC50 (KAT6A) | SMILES |
| --- | --- | --- |
| < 4.00 | < 4.00 | Cc1cc(-c2ccccc2)cc(C(=O)N2CCC(S(=O)(=O)c3ccccc3)C2)c1F (centres unmarked) [Compound I-73] |
| < 4.00 | 4.30 to 5.00 | CCN1CCCC(S(=O)(=O)NNC(=O)c2cc(-c3ccccc3)cc(C)c2F)C1 (centres unmarked) [Compound I-99] |
| ≥ 5.00 | ≥ 5.00 | O=C(NNS(=O)(=O)C1CCCCC1)c1cc(-c2ccccc2F)cc(Cl)c1F [Compound I-390] |
| 4.30 to 5.00 | 4.30 to 5.00 | COCCN1CCCC(S(=O)(=O)NNC(=O)c2cc(-c3ccccc3)cc(C)c2F)C1 (centres unmarked) [Compound I-101] |
| < 4.00 | < 4.00 | Cc1cc(-c2cccc(OCCN(C)C)c2)cc(C(=O)NNS(=O)(=O)C2CCCCC2)c1F [Compound I-403] |
| 4.30 to 5.00 | 4.30 to 5.00 | CC(=O)N1CCC(S(=O)(=O)NNC(=O)c2cc(-c3ccccc3)cc(C)c2F)CC1 [Compound I-94] |
| < 4.00 | 4.30 to 5.00 | Cc1cc(-c2ccncc2)cc(C(=O)NNS(=O)(=O)c2ccccc2)c1F [Compound I-202] |
| ≥ 5.00 | 4.30 to 5.00 | O=C(NNS(=O)(=O)C1CCCCC1)c1cc(-c2cccc(CO)c2)cc(Cl)c1F [Compound I-485] |
| ≥ 5.00 | ≥ 5.00 | Cc1cc(-c2ccccc2)cc(C(=O)NNS(=O)(=O)Cc2cccc(F)c2)c1F [Compound I-83] |
| ≥ 5.00 | ≥ 5.00 | O=C(NNS(=O)(=O)CC1CCCN(C(=O)C2CCOCC2)C1)c1cc(-c2ccccc2)cc(Cl)c1F (centres unmarked) [Compound I-419] |
| 4.00 to 4.30 | 4.30 to 5.00 | COCCN1CC(S(=O)(=O)NNC(=O)c2cc(-c3ccccc3)cc(C)c2F)C1 [Compound I-43] |
| ≥ 5.00 | ≥ 5.00 | Cc1cc(-c2cccc(F)c2)cc(C(=O)NNS(=O)(=O)c2ccccc2)c1F [Compound I-371] |
| 4.30 to 5.00 | 4.30 to 5.00 | COc1ccc(CN2CCC(S(=O)(=O)NNC(=O)c3cc(-c4ccccc4)cc(C)c3F)C2)cc1 (centres unmarked) [Compound I-27] |
| ≥ 5.00 | ≥ 5.00 | Cc1cc(-c2ccccc2)cc(C(=O)NNS(=O)(=O)CC2CN(C(=O)OC(C)(C)C)CCO2)c1F (centres unmarked) [Compound I-424] |
| 4.30 to 5.00 | ≥ 5.00 | COCCN1CCCC(CS(=O)(=O)NNC(=O)c2cc(-c3ccccc3)cc(C)c2F)C1 (centres unmarked) [Compound I-297] |
| ≥ 5.00 | ≥ 5.00 | Cc1cc(-c2cccc(C(=O)OCc3ccccc3)c2)cc(C(=O)NNS(=O)(=O)C2CCOCC2)c1F [Compound I-443] |
| 4.30 to 5.00 | 4.30 to 5.00 | Cc1cc(-c2ccccc2)cc(C(=O)NNS(=O)(=O)C2CN(C(=O)c3ccccc3)C2)c1F [Compound I-34] |
| 4.00 to 4.30 | 4.00 to 4.30 | Cc1cc(-c2ccccc2)cc(C(=O)NNS(=O)(=O)C(C)C2CCNCC2)c1F (centres unmarked) [Compound I-382] |
| ≥ 5.00 | ≥ 5.00 | Cc1cc(-c2ccccc2)cc(C(=O)NNS(=O)(=O)CC2CCN(C(=O)OC(C)(C)C)C2)c1F (centres unmarked) [Compound I-206] |
| ≥ 5.00 | ≥ 5.00 | CCC(=O)N1CCCC(CS(=O)(=O)NNC(=O)c2cc(-c3cccc(F)c3)cc(C)c2F)C1 (centres unmarked) [Compound I-372] |
| < 4.00 | < 4.00 | Cc1cc(-c2ccccc2)cc(C(=O)NNS(=O)(=O)C(C)C2CCCNC2)c1F (centres unmarked) [Compound I-314] |
| ≥ 5.00 | ≥ 5.00 | Cc1cc(-c2ccccc2)cc(C(=O)NNS(=O)(=O)C2CCN(Cc3ccccc3Cl)C2)c1F (centres unmarked) [Compound I-29] |
| ≥ 5.00 | ≥ 5.00 | Cc1cc(-c2ccccc2)cc(C(=O)NNS(=O)(=O)CC2CCCN(C(=O)C(C)C)C2)c1F (centres unmarked) [Compound I-369] |
| ≥ 5.00 | ≥ 5.00 | COc1ccccc1CS(=O)(=O)NNC(=O)c1cc(-c2ccccc2)cc(C)c1F [Compound I-79] |
| 4.30 to 5.00 | 4.30 to 5.00 | COCCC(=O)N1CCC(S(=O)(=O)NNC(=O)c2cc(-c3ccccc3)cc(C)c2F)C1 (centres unmarked) [Compound I-106] |
| ≥ 5.00 | ≥ 5.00 | Cc1cc(-c2ccccc2)cc(C(=O)NNS(=O)(=O)C2CCN(C(=O)OC(C)(C)C)CC2)c1F [Compound I-88] |
| ≥ 5.00 | ≥ 5.00 | Cc1cc(-c2ccccc2)cc(C(=O)NNS(=O)(=O)c2cccc(C(=O)N(C)C)c2)c1F [Compound I-255] |
| 4.00 to 4.30 | 4.30 to 5.00 | COc1ccc(CS(=O)(=O)NNC(=O)c2cc(-c3ccccc3)cc(C)c2F)cc1 [Compound I-81] |

From US20220267260A1, “COMPOUNDS CONTAINING A SULFONIC GROUP AS KAT INHIBITORS” (Epizyme, Inc., priority 2016, published 2022)
